Results published in US20160228420A1, “POLYETHYLENE GLYCOL-CONTAINING COMPOSITION” (SANTEN PHARMACEUTICAL CO., LTD., priority 2013, published 2016).

What was measured:
[1] = disclosed in Patent Document 2; cited from earlier work
[2] = repeated oral administration; disclosed in Patent Document 2; cited from earlier work
[3] = tested on: VEGF induced retinal vascular permeability promotion; assay: VEGF induced rabbit retinal vascular permeability promotion model; format: in vivo; settings: 0.5 mg/eye intravitreal in PEG 400; VEGF 2 months after administration; vitreous fluorescein 2 days after VEGF
Experimental: By using the VEGF induced rabbit retinal vascular permeability promotion model, usefulness of the polyethylene glycol 400 formulation of Compound A was evaluated. Incidentally, the VEGF has been reported to promote retinochoroidal vascular permeability by intravitreal administration (Invest Ophthalmol Vis Sci. 2013; 54(1):503-11.), and has generally been used for preparation of a pathological condition accompanied by retinal and choroidal vascular disorder (for example, diabetic retinopathy, diabetic macular edema, retinal vein occlusion, retinal artery occlusion, exudative age-related macular degeneration, etc.).
To 1.5 g of the present compound A was added 12 mL of polyethylene glycol 400 (NOF CORPORATION) and the mixture was stirred, and after confirming the dissolution thereof, a suitable amount of polyethylene glycol 400 was added to make the whole amount 15 mL. […]
After 2 days from the VEGF administration, 0.1 mL/kg of a 10% fluorescein solution was intravenously administered to rabbits. After 2 hours from administration of the fluorescein, the fluorescein concentration in the vitreous body was measured by fluorophotometry, and this was used as an index of the retinal vascular permeability.
Thereafter, according to Formula 1, an inhibition ratio (%) of the administered medicine to the retinal vascular permeability promotion caused by VEGF was calculated. […]

O=C(CO)Nc1cc(CSc2ncccc2C(=O)Nc2ccc(OC(F)(F)F)cc2)ccn1.O=S(=O)(O)c1ccccc1 [2-[[[2-[(hydroxyacetyl)amino]-4-pyridinyl]methyl]thio]-N-[4-(trifluoromethoxy)phenyl]-3-pyridinecaboxamide]
storage stability [1]: excellent | deposition of minerals in the stomach [2]: no deposition of minerals is recognized

O=C(CO)Nc1cc(CSc2ncccc2C(=O)Nc2ccc(OC(F)(F)F)cc2)ccn1 [Compound A, 2-[[[2-[(hydroxyacetyl)amino]-4-pyridinyl]methyl]thio]-N-[4-(trifluoromethoxy)phenyl]-3-pyridinecaboxamide]
Inhibition ratio (%) (retinal vascular permeability) [3]: 95.3%
